Source: publication PMC5976239 (Journal of medicinal chemistry, 2017)
In brackets after ≈: the same amount, converted by molar mass.

Legend:
Assay type in all cases: cell-based
[1] = system: C. albicans ATCC MYA-1237(R) (F); test: MIC determination by in vitro antifungal assay; details: Candida albicans, 48 h, read-out: MIC (MIC-0)
[2] = system: C. albicans ATCC MYA-2876(S) (C); test: MIC determination by in vitro antifungal assay; details: Candida albicans, 48 h, read-out: MIC (MIC-0)
[3] = system: C. albicans ATCC MYA-2310(S) (E); test: MIC determination by in vitro antifungal assay; details: Candida albicans, 48 h, read-out: MIC (MIC-0)
[4] = system: Aspergillus flavus ATCC MYA-3631 (K); test: MIC determination against filamentous fungi; details: 48 h, read-out: MIC (MIC-0)
[5] = system: Aspergillus nidulans ATCC 38163 (L); test: MIC determination against filamentous fungi; details: ATCC38163, 48 h, read-out: MIC (MIC-0)
[6] = system: C. albicans ATCC 64124(R) (B); test: MIC determination by in vitro antifungal assay; details: Candida albicans, ATCC64124, 48 h, read-out: MIC (MIC-0)
[7] = system: C. albicans ATCC 90819(R) (D); test: MIC determination by in vitro antifungal assay; details: Candida albicans, ATCC90819, 48 h, read-out: MIC (MIC-0)
[8] = system: Candida albicans ATCC 10231 (A); test: MIC determination by in vitro antifungal assay; details: ATCC10231, 48 h, read-out: MIC (MIC-0)
[9] = system: Aspergillus terreus ATCC MYA-3633 (M); test: MIC determination against filamentous fungi; details: 48 h, read-out: MIC (MIC-0)
[10] = system: C. albicans ATCC MYA-1003(R) (G); test: MIC determination by in vitro antifungal assay; details: Candida albicans, 48 h, read-out: MIC (MIC-0)
[11] = system: C. albicans, non-albicans Candida, and Aspergillus strains; test: Antifungal activity over the panel of 13 fungal strains; details: for MIC: read-out: antifungal activity class based on MIC values; for antifungal activity class based on MIC values: against all fungal strains tested (5 and 6 except strain K)

CC[C@H](C)C[C@H](C)CCCCCCCCC(=O)N[C@H]1C[C@@H](O)[C@@H](NCCN)NC(=O)[C@@H]2[C@@H](O)CCN2C(=O)[C@H]([C@H](O)CCN)NC(=O)[C@H]([C@H](O)[C@@H](O)c2ccc(O)cc2)NC(=O)[C@@H]2C[C@@H](O)CN2C(=O)[C@H]([C@@H](C)O)NC1=O [CAS, caspofungin, reference compound]
MIC [1]: 0.24 µg/mL (≈ 0.22 µM)
MIC [2]: 0.06 µg/mL (≈ 0.0549 µM)
MIC [3]: 0.12 µg/mL (≈ 0.11 µM)
MIC [4]: > 31.3 µg/mL
MIC [5]: > 31.3 µg/mL
MIC [6]: 0.24 µg/mL (≈ 0.22 µM)
MIC [7]: 0.12 µg/mL (≈ 0.11 µM)
MIC [8]: 0.975 µg/mL (≈ 0.892 µM)
MIC [9]: > 31.3 µg/mL
MIC [10]: 0.48 µg/mL (≈ 0.439 µM)

CN1CCNCC1 [Compound 1, N-methylpiperazine]
MIC [1]: > 31.3 µg/mL
MIC [2]: > 31.3 µg/mL
MIC [3]: > 31.3 µg/mL
MIC [4]: > 31.3 µg/mL
MIC [5]: > 31.3 µg/mL
MIC [6]: > 31.3 µg/mL
MIC [7]: > 31.3 µg/mL
MIC [8]: > 31.3 µg/mL
MIC [9]: > 31.3 µg/mL
MIC [11]: ≥ 31.3 µg/mL
MIC [10]: > 31.3 µg/mL

CCCCCN1CCNCC1 [Compound 2, N-pentylpiperazine]
MIC [1]: > 31.3 µg/mL
MIC [2]: > 31.3 µg/mL
MIC [3]: > 31.3 µg/mL
MIC [4]: > 31.3 µg/mL
MIC [5]: > 31.3 µg/mL
MIC [6]: > 31.3 µg/mL
MIC [7]: > 31.3 µg/mL
MIC [8]: > 31.3 µg/mL
MIC [9]: > 31.3 µg/mL
MIC [11]: ≥ 31.3 µg/mL
MIC [10]: > 31.3 µg/mL

CCCCCCCCN1CCNCC1 [Compound 3, 1-Octyl Piperazine]
MIC [1]: > 31.3 µg/mL
MIC [2]: > 31.3 µg/mL
MIC [3]: > 31.3 µg/mL
MIC [4]: > 31.3 µg/mL
MIC [5]: > 31.3 µg/mL
MIC [6]: > 31.3 µg/mL
MIC [7]: > 31.3 µg/mL
MIC [8]: > 31.3 µg/mL
MIC [9]: > 31.3 µg/mL
MIC [10]: > 31.3 µg/mL

CCCCCCCCCN1CCNCC1 [Compound 4, 1-Nonyl Piperazine]
MIC [1]: 31.3 µg/mL (≈ 147 µM)
MIC [2]: > 31.3 µg/mL
MIC [3]: 31.3 µg/mL (≈ 147 µM)
MIC [4]: 31.3 µg/mL (≈ 147 µM)
MIC [5]: > 31.3 µg/mL
MIC [6]: > 31.3 µg/mL
MIC [7]: 31.3 µg/mL (≈ 147 µM)
MIC [8]: 31.3 µg/mL (≈ 147 µM)
MIC [9]: > 31.3 µg/mL
MIC [11]: ≥ 31.3 µg/mL
MIC [10]: > 31.3 µg/mL

CCCCCCCCCCN1CCNCC1 [Compound 5, 1-Decyl Piperazine]
MIC [1]: 15.6 µg/mL (≈ 68.9 µM)
MIC [2]: 15.6 µg/mL (≈ 68.9 µM)
MIC [3]: 15.6 µg/mL (≈ 68.9 µM)
MIC [4]: 31.3 µg/mL (≈ 138 µM)
MIC [5]: 15.6 µg/mL (≈ 68.9 µM)
MIC [6]: 15.6 µg/mL (≈ 68.9 µM)
MIC [7]: 15.6 µg/mL (≈ 68.9 µM)
MIC [8]: 15.6 µg/mL (≈ 68.9 µM)
MIC [9]: 15.6 µg/mL (≈ 68.9 µM)
antifungal activity class based on MIC values [11]: moderately active
MIC [10]: 15.6 µg/mL (≈ 68.9 µM)

CCCCCCCCCCCN1CCNCC1 [Compound 6, 1-Undecyl Piperazine]
MIC [1]: 7.8 µg/mL (≈ 32.4 µM)
MIC [2]: 15.6 µg/mL (≈ 64.9 µM)
MIC [3]: 7.8 µg/mL (≈ 32.4 µM)
MIC [4]: 31.3 µg/mL (≈ 130 µM)
MIC [5]: 15.6 µg/mL (≈ 64.9 µM)
MIC [6]: 7.8 µg/mL (≈ 32.4 µM)
MIC [7]: 7.8 µg/mL (≈ 32.4 µM)
MIC [8]: 7.8 µg/mL (≈ 32.4 µM)
MIC [9]: 15.6 µg/mL (≈ 64.9 µM)
antifungal activity class based on MIC values [11]: moderately active
MIC [10]: 15.6 µg/mL (≈ 64.9 µM)

CCCCCCCCCCCCCN1CCNCC1 [Compound 8, 1-Tridecyl Piperazine]
MIC [1]: 1.95 µg/mL (≈ 7.26 µM)
MIC [2]: 1.95 µg/mL (≈ 7.26 µM)
MIC [3]: 1.95 µg/mL (≈ 7.26 µM)
MIC [4]: 1.95 µg/mL (≈ 7.26 µM)
MIC [5]: 0.975 µg/mL (≈ 3.63 µM)
MIC [6]: 0.975 µg/mL (≈ 3.63 µM)
MIC [7]: 0.975 µg/mL (≈ 3.63 µM)
MIC [8]: 0.975 µg/mL (≈ 3.63 µM)
MIC [9]: 1.95 µg/mL (≈ 7.26 µM)
MIC [11]: 0.015 to 1.95 µg/mL (≈ 0.0559 to 7.26 µM)
MIC [10]: 1.95 µg/mL (≈ 7.26 µM)

CCCCCCCCCCCCCCN1CCOCC1 [Compound 10, 4-Tetradecyl Morpholine]
MIC [1]: > 31.3 µg/mL
MIC [2]: > 31.3 µg/mL
MIC [3]: > 31.3 µg/mL
MIC [4]: > 31.3 µg/mL
MIC [5]: > 31.3 µg/mL
MIC [6]: > 31.3 µg/mL
MIC [7]: > 31.3 µg/mL
MIC [8]: > 31.3 µg/mL
MIC [9]: > 31.3 µg/mL
MIC [11]: ≥ 31.3 µg/mL
MIC [10]: > 31.3 µg/mL
